Measurements published in publication PMC9100651, “Focused Design of Novel Cyclic Peptides Endowed with GABARAP-Inhibiting Activity” (International Journal of Molecular Sciences, 2022).
Values joined by “and” are separate entries in the source; they are usually repeats but may differ in a detail not shown here. Identical values can stand only once. Like-named read-outs stand apart in the source and are kept apart here. Bridge positions count the residues as written; N and C are the ends. Peptide text beside a SMILES is read from it.

What was measured:
[1] = target: T1, 6-His-tagged recombinant GABARAP (Homo sapiens, UniProt O95166); assay: Microscale Thermophoresis (MST) binding affinity
T1 construct: purchased Abcam, Cambridge, UK
Procedure: The binding affinity (Kd) between the target protein (6-His-tagged recombinant GABARAP, produced by Abcam, Cambridge, UK) and peptide ligands (K1, WC8 and WC10, acquired by ProteoGenix, Schiltigheim, France) was measured by MST [22]. Briefly, histidine-tagged GABARAP was labeled by using a His-tag-specific dye for 30 min at room temperature, using either the conventional Monolith His-Tag Labeling Kit RED-tris-NTA (MO-L008) or the newer Monolith His-Tag Labeling Kit RED-tris-NTA 2nd Generation (MO-L018), both purchased from NanoTemper Technologies (GmbH, München, Germany). MST experiments were performed on both a Monolith NT.115 and a Monolith NT.115Pico instrument (NanoTemper Technologies, München, GmbH), in order to further increase the statistical significance of the attained results.
A fixed concentration of the labeled GABARAP protein was mixed with 16 1:1 serial dilutions of K1, WC8, and WC10. The protein and the peptide were incubated for 60–90 min at room temperature. The MST analysis was performed using standard capillaries, with the following experimental settings: an MST power of 40% (to create a temperature gradient) and a different excitation power in relation to the considered system and instrument (see Supplementary Materials for details, Table S1). Kd values were calculated from compound concentration-dependent changes of normalized fluorescence (Fnorm). In all the experiments, both the protein and the peptides were dissolved in PBS-T buffer (phosphate-buffered saline + 0.05% Tween™ 20; NanoTemper Technologies, GmbH) and 2.5% DMSO. The auto-fluorescence of each peptide was evaluated before proceeding to the determination of the Kd. At least two independent experiments were performed to calculate the Kd values. Data were processed using the NanoTemper MO.Affinity Analysis software (version 2.3), and the fitting was performed by using the Kd model. […]
Table S1. Summary table of the Microscale Thermophoresis (MST) experiments performed on both
Monolith NT.115 and Monolith NT.115Pico instruments. At least two independent experiments were
performed to compute the Kd value.
Protein Ligand MST Exc. Temp. [Ligand] Range SNR* Kd (µM)

[2] = target: T2, GABARAP (Homo sapiens, UniProt O95166); assay: Surface Plasmon Resonance (SPR), steady-state affinity; type: binding
Procedure: SPR experiments were performed on a BIAcore 8K system (Cytiva, Marlborough, MA, USA). GABARAP was dissolved in 10 mM of sodium acetate (pH 5.5) and amine-coupled to a CM5 sensor chip (GE Healthcare, Chicago, IL, USA). The reference peptide K1 was dissolved in the running buffer (10 mM Hepes, pH 7.4, 150 mM NaCl) at concentrations of 10 μM to 156 nM. Gradient concentrations of K1 were injected at a flow rate of 30 μL/min, contact time 120 s at 25 °C. WC8 and WC10 were both dissolved in the running buffer (Sigma-Aldrich Dulbecco’s PBS, pH 7.4, 0.005% Tween™ and 5% DMSO; Sigma-Aldrich, St. Louis, MO, USA) at concentrations of 100 μM to 6.25 μM and 12.5 μM to 390 nM, respectively. Gradient concentrations of the peptides were then flowed over the chip with a flow rate of 30 μL/min, contact time 120 s at 25 °C. […] Two independent experiments for WC8 and WC10 were performed. The binding kinetics were evaluated using the BIAevaluation software package and applying the 1:1 steady-state affinity model.

[3] = test system: PC-3 prostate cancer cells; assay: MTS cell viability assay on PC-3 cells; settings: for cell viability: PC-3, highest tested concentration (10 µM), 96 h post-treatment, % of untreated control
Procedure: (§1) PC-3 prostate cancer cell line was purchased from the American Type Culture Collection (ATCC, Manassas, VA, USA), cultured at 37 °C and 5% CO2 in Ham’s F-12 K (Kaighn’s) basal medium (Gibco Laboratories, Grand Island, NY, USA), supplemented with 10% FBS (Gibco Laboratories) and 1% of 100 U/mL penicillin/streptomycin (Gibco Laboratories).
(§2) PC-3 and PNT2 cell lines were seeded at a density of 1 × 10^4 cells/well in 96-well plates and maintained under standard growth conditions.
(§3) After 96 h, cell viability was assessed by MTS assay according to the manufacturer’s protocol (Cell Titer 96 Aqueous One Solution Cell Proliferation Assay; Promega, Nacka, Sweden) using a 96-well-plate spectrophotometer (Varioskan Flash Multimode Reader; Thermo-Scientific, Waltham, MA, USA) set at λ = 490 nm. The absorbance value of untreated cells was set at 100% (control), and the viability of treated cells was expressed as a percentage of the control. Three independent experiments were performed in triplicate for each condition.

[4] = Solubility and stability in water and PBS buffer
Source text: Initially, we verified that the peptides were water soluble and stable in the buffer in which the recombinant GABARAP protein was solved.

[5] = target: T2, GABARAP; parameters: method as in PMID 29867141; settings: cited from earlier work
[6] = test system: PC-3 prostate cancer cells; settings: human, 96 h, 10 µM
Procedure: as §1, §2, §3

[7] = target: T2, GABARAP; parameters: method as in PMID 18638487; settings: SPR; cited from earlier work
[8] = Kd (MST), Monolith NT.115Pico, GABARAP 10 nM, 25°C
[9] = Kd on GABARAP, consistent among MST and SPR

T2 sequence (O95166 whole entry): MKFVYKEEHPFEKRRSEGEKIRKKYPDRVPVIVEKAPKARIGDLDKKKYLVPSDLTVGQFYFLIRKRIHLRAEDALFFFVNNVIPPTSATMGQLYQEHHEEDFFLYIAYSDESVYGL
T1 sequence (O95166 whole entry): as above

With `CC[C@H](C)[C@@H]1NC(=O)[C@@H](NC(=O)[C@H](CCC(=O)O)NC(=O)[C@@H](N)Cc2c[nH]c3ccccc23)CSSC[C@@H](C(=O)O)NC(=O)[C@H](CCC(=O)O)NC(=O)[C@H](CC(=O)O)NC(=O)[C@H](Cc2ccccc2)NC1=O` [WC8, WECIFDEC] (H-WECIFDEC-OH; disulfide 3-8; N-terminus assumed) the Kd [1, 8] was 20.8 ± 2.7 µM, the Kd [1, 9] was 22 µM and the “Kd on GABARAP” value ([1]; consistent among MST and SPR) was “low micromolar range”. The Kd [2] was 24.8 µM, the “efficacy on PC-3 cells compared to Paclitaxel” value ([3]; PC-3, from 1 to 10 µM, 96 h) was “high efficacy” and the cell viability [3] was 24.06%. The “stability in water and PBS” value [4] was “excellent stability”.

In the case of `CC[C@H](C)[C@@H]1NC(=O)[C@@H](NC(=O)[C@H](CCC(=O)O)NC(=O)[C@H](Cc2c[nH]c3ccccc23)NC(=O)CNC(=O)[C@@H](N)Cc2c[nH]c3ccccc23)CSSC[C@@H](C(=O)O)NC(=O)[C@H](CCC(=O)O)NC(=O)[C@H](CC(=O)O)NC(=O)[C@H](Cc2ccccc2)NC1=O` [WC10, WGWECIFDEC] (H-WGWECIFDEC-OH; disulfide 5-10; N-terminus and C-terminus assumed), the Kd ([1]; Kd (MST), Monolith NT.115, 25°C, PBS-T, 2.5% DMSO) is reported as 4.2 ± 1.8 µM, the Kd [1, 8] is reported as 3.8 ± 1.5 µM and the Kd [1, 9] is reported as ~4 µM. For the same molecule, the “Kd on GABARAP” value ([1]; consistent among MST and SPR) was “low micromolar range”, the Kd [2] was 4.9 µM and the cell viability [3] was 22.5%. For the same molecule, the “stability in water and PBS” value [4] was “excellent stability”.

In the case of EEWVIVSDEEIEEARQKA [AnkB-LIR], the Kd [5] is listed as 0.00027 µM.

In the case of `CC(C)C[C@H](NC(=O)[C@H](Cc1c[nH]cn1)NC(=O)[C@H](CCC(=O)O)NC(=O)[C@H](Cc1c[nH]c2ccccc12)NC(=O)[C@@H](NC(=O)[C@H](Cc1ccc(O)cc1)NC(=O)[C@@H](NC(=O)[C@H](C)NC(=O)[C@@H](N)CC(=O)O)[C@@H](C)O)[C@@H](C)O)C(=O)N[C@@H](C)C(=O)N[C@@H](Cc1c[nH]c2ccccc12)C(=O)N1CCC[C@H]1C(=O)O` [Peptide K1, DATYTWEHLAWP, reference compound], the Kd ([1]; Monolith NT.115, 25°C, PBS-T, 2.5% DMSO, read-out: Kd (MST)) is reported as 2.6 ± 0.4 µM, the Kd ([1]; Monolith NT.115Pico, GABARAP 10 nM, 25°C, read-out: Kd (MST)) is reported as 3.5 ± 0.9 µM and the Kd ([1]; consistent among MST and SPR, read-out: Kd on GABARAP) is reported as ~3 µM. The Kd ([2]; BIAcore 8K, steady-state analysis, 25 °C, read-out: Kd (SPR)) was 3 µM, the cell viability [6] was 27.16% and the Kd [7] was 0.39 µM and ~0.39 µM.
